Measured values: PubChem BioAssay (NCI)
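Step 1: Grow cells in 96-well plates. Step 2: Expose to compound for 48 hours at 5 concentrations. Step 3: Interpolate endpoints linearly; if unreached, use highest concentration. The concentration for 50% growth inhibition is given as GI50. TGI marks complete inhibition of growth.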

Key:
Test in all cases: NCI-60 cell line screen, 48 h
A498 renal = tested on: A498 renal
SF-268 CNS = tested on: SF-268 CNS
A549 NSCLC = tested on: A549 NSCLC
OVCAR-5 ovarian = tested on: OVCAR-5 ovarian
HT29 colon = tested on: HT29 colon
NCI-H23 lung = tested on: NCI-H23 lung
SK-OV-3 ovarian = tested on: SK-OV-3 ovarian
NCI/ADR-RES ovarian = tested on: NCI/ADR-RES ovarian
LOX IMVI melanoma = tested on: LOX IMVI melanoma
HOP-62 NSCLC = tested on: HOP-62 NSCLC

Row | SMILES | GI50 (A498 renal) [nM] | TGI (A498 renal) [µM] | GI50 (SF-268 CNS) [µM] | TGI (SF-268 CNS) [µM] | GI50 (A549 NSCLC) [µM] | TGI (A549 NSCLC) [µM] | GI50 (OVCAR-5 ovarian) [µM] | TGI (OVCAR-5 ovarian) [µM] | GI50 (HT29 colon) [µM] | TGI (HT29 colon) [µM] | GI50 (NCI-H23 lung) [nM] | TGI (NCI-H23 lung) [µM] | GI50 (SK-OV-3 ovarian) [µM] | TGI (SK-OV-3 ovarian) [µM] | GI50 (NCI/ADR-RES ovarian) [µM] | TGI (NCI/ADR-RES ovarian) [µM] | GI50 (LOX IMVI melanoma) [µM] | TGI (LOX IMVI melanoma) [µM] | GI50 (HOP-62 NSCLC) [µM] | TGI (HOP-62 NSCLC) [µM]
1 | Cc1ccc(NC(=O)Nc2c(Cl)cccc2Cl)cn1 | 12100 | > 100 | 14.5 | > 100 | 8.51 | 43 | 72.9 | > 100 | 3.93 | 15.6 | 26100 | > 100 | 5.97 | > 100 | 4.46 | 70.3 | 21.3 | > 100 | 8.33 | > 100
2 | CCN(CC)CCN1C(=O)C2C3C(=O)CC(C)(CC3C)C2C1=O (centres undefined) | > 100000 | > 100 | > 100 | > 100 | > 100 | > 100 | > 100 | > 100 | > 100 | > 100 | > 100000 | > 100 | > 100 | > 100 | > 100 | > 100 | > 100 | > 100 | > 100 | > 100
3 | NC1=NC(=O)/C(=C/c2ccc3ncccc3c2)S1 | > 17300 | > 25 | > 25 | > 25 | > 25 | > 25 | > 25 | > 25 | > 25 | > 25 | > 25000 | > 25 | > 25 | > 25 | > 25 | > 25 | > 25 | > 25 | > 25 | > 25
4 | COC1=C(OC)C(=O)C(Sc2ccc3ccccc3c2)=CC1=O | – | 29.6 | – | 36.3 | – | 32.3 | – | 37.2 | – | 37.8 | – | 33.1 | – | 31.7 | – | 69.6 | – | 30.6 | – | 32.7
5 | COc1cccc(C2=C(c3cn(C)c4cc(F)ccc34)C(=O)NC2=O)c1 | 5960 | > 25 | > 22.2 | > 25 | > 17.4 | > 25 | > 25 | > 25 | 8.35 | > 25 | > 25000 | > 25 | > 25 | > 25 | 18.2 | > 25 | 17.1 | > 25 | > 25 | > 25
6 | CC(c1ccccc1)[C@@H](C(=O)Nc1ccc(I)cc1F)N1C(=O)N[C@H](c2ccc(OC[C@H](O)CO)cc2)C1=O (some centres undefined) | 541 | 2.3 | 15.2 | > 25 | > 14.3 | > 25 | 1.03 | > 25 | 0.0683 | > 25 | 902 | > 25 | > 25 | > 25 | > 25 | > 25 | 2.5 | > 25 | 17 | > 25
7 | CN(C)C=NC1CCC(C(C)(C)C)CC1 (centres undefined) | – | 49.6 | – | 96 | – | 38.9 | – | 37.2 | – | 21.6 | – | 34.3 | – | 44.8 | – | 32.8 | – | 29.7 | – | 32.3
8 | CC[C@]1(O)CC2CN(CCc3c([nH]c4ccccc34)[C@@](C(=O)OC)(c3cc4c(cc3OC)N(C=O)[C@H]3[C@@](O)(C(=O)OC)[C@H](OC(C)=O)[C@]5(CC)C=CCN6CC[C@]43[C@@H]65)C2)C1 (some centres undefined) | 12.3 | – | < 0.005 | > 50 | 0.0172 | > 50 | 0.0253 | > 50 | < 0.005 | 0.0195 | < 5 | > 50 | < 0.005 | 0.0185 | 0.698 | > 13.3 | 0.00808 | > 50 | 0.0054 | > 44.2
9 | COc1ccc(C(=O)O[C@H]2[C@H](O[C@H]3[C@@H](O)COC(O[C@H]4C[C@H]5[C@@H]6CC=C7C[C@@H](O)CC[C@]7(C)[C@H]6CC[C@]5(C)[C@H]4[C@H](C)C(=O)CCC(C)C)[C@@H]3OC(C)=O)OC[C@@H](O)[C@@H]2O)c(C)c1 (some centres undefined) | < 10 | < 0.01 | < 0.01 | 3.4 | < 0.01 | > 100 | 0.103 | 26.9 | 0.0712 | 21.6 | 57.4 | 15.4 | 0.0246 | 9.5 | 8.48 | 86.1 | < 0.01 | 0.0173 | < 0.01 | 7.51
10 | O=Cc1c(-c2ccccc2)[nH]c2ccccc2c1=O | – | > 100 | – | > 100 | – | > 100 | – | > 100 | – | > 100 | – | > 100 | – | > 100 | – | > 100 | – | > 100 | – | > 100
11 | C[C@@H](NC(=O)c1ncnc(N)c1Cl)c1ncc(C(=O)Nc2cc(C(F)(F)F)c(Cl)cn2)s1 | 7940 | 24.7 | 26.8 | > 71.6 | 18 | 64.4 | 5.88 | > 90.5 | 1.07 | 46.2 | 10800 | 57.9 | 31.2 | > 93.5 | 24.5 | 82.5 | 3.32 | 54 | 24.3 | 84.8
12 | CCCCCCCCCCCCCCCCCCOc1ccccc1CC(=O)OCC[N+](CC)(CC)CC | 2130 | 8.49 | 1.48 | 6.32 | 1.44 | 7.42 | 2 | 8.52 | 1.63 | 8.58 | 1160 | 4.09 | 3 | 12.1 | 7.58 | 17.5 | 0.881 | 1.66 | 1.76 | 8.32
13 | CCOc1ccc2c(c1)CN(Cc1ccc(Cl)cc1)CO2 | 2090 | 19.2 | 28.1 | > 100 | 35.1 | > 100 | 17.9 | 46.2 | 20.3 | 40.4 | 25800 | 94.5 | 29.8 | > 100 | 19.4 | 48.9 | 17.2 | 33.4 | 26.2 | > 100
14 | CCN(CC)c1ccc2nc3c4ccccc4c(=O)cc-3n(-c3ccccc3)c2c1 | 653 | 4.59 | 2.85 | 12.9 | 1.45 | 3.96 | 2.92 | > 100 | 0.902 | 8.42 | 2180 | 9.09 | 1.91 | 5.92 | 2.34 | 7.86 | 1.62 | 3.72 | 1.08 | 3.6
15 | O=C(Nc1ccccc1C(F)(F)F)c1ccc(NC2=C(Cl)C(=O)N(Cc3ccccc3)C2=O)cc1 | 38300 | 89.4 | 24.3 | 94.6 | 40.5 | > 100 | 58 | > 100 | > 100 | > 100 | 15600 | 34.2 | 57.7 | > 100 | 39.3 | > 100 | 18.8 | > 100 | 21.5 | 43.1
16 | COc1ccc(Cn2cc3c(c2)-c2oncc2CC3)cc1OC | 102 | 0.678 | 0.43 | > 50 | 0.283 | 48.4 | 0.339 | > 41.9 | 0.153 | 1.28 | 200 | > 25.3 | 0.152 | 1.14 | 0.132 | 1.38 | 0.366 | > 50 | 0.259 | > 50
17 | ClCc1ccc(Cn2cnc3c(Cl)ncnc32)cc1 | 29400 | 50.4 | 6.03 | 16.5 | 11.2 | 38.3 | 18.2 | 34.7 | > 45 | > 100 | 6990 | 17.3 | 20 | 47.6 | 10.8 | 25.2 | 5.8 | 20.4 | 11 | 23.7
18 | Cc1ccc(Cl)cc1NC(=O)c1cc2ccccc2cc1O | 369 | 1.04 | 0.426 | > 32.6 | 0.418 | > 100 | 0.992 | 10.7 | 3.37 | 14.2 | 234 | 0.707 | 0.406 | 2.95 | 0.266 | 1.27 | 0.213 | 1.49 | 0.224 | 0.673
19 | CCCCCC[C@@H](C)Nc1nc2ccccc2c2occc12 | 18600 | 35.1 | 14.7 | 38.7 | 19.4 | 78.2 | 14 | 27.4 | 14.5 | 43.5 | 1000 | 6.97 | 15.7 | 32.2 | 10.7 | 22.6 | 13.9 | 26.9 | 14.8 | 28
